Test results as given in ChEMBL document CHEMBL3885861, “Open TG-GATES”.

Species: Rattus norvegicus
Test: Open TG-GATES - Regimen: Daily Repeat
Format: toxicity, organism-based, Sprague-Dawley
Set-up: regimen Daily Repeat, gender Male, age 6 weeks
Settings: in vivo, po, route gavage; for APTT / Bas / Eos / Fbg / Hb / Ht / Lym / MCH / MCHC / MCV / Mono / Neu / PT / Plat / RBC / Ret / WBC: tissue Blood; for KIDNEY_L / KIDNEY_R / KIDNEY_TOTAL: tissue Kidney; for LIVER: tissue Liver; for A/G / ALP / ALT / AST / BUN / CRE / Ca / Cl / DBIL / GLC / IP / K / LDH / Na / PL / RALB / TBIL / TC / TG / TP / gamma-GTP: tissue Plasma
[1] = 100 mg/kg, 72 h, dose level Middle, time 3 day
[2] = 100 mg/kg, […], dose level Middle, time 7 day
[3] = 100 mg/kg, […], dose level Middle, time 14 day
[4] = 100 mg/kg, […], dose level Middle, time 28 day
[5] = 300 mg/kg, 72 h, dose level High, time 3 day
[6] = 300 mg/kg, […], dose level High, time 7 day
[7] = 300 mg/kg, […], dose level High, time 14 day
[8] = 300 mg/kg, […], dose level High, time 28 day

## CCCNC(=O)NS(=O)(=O)c1ccc(Cl)cc1 [CHLORPROPAMIDE]
[1]
  TERMINAL_BW: 208.2 g
  APTT: 17.5 s
  Bas: 0%
  Eos: 1%
  Fbg: 275.8 mg/dL
  Hb: 13 g/dL
  Ht: 40.2%
  Lym: 77.2%
  MCH: 20.8 pg
  MCHC: 32.5%
  MCV: 64.1 fL
  Mono: 2.6%
  Neu: 18.2%
  PT: 16.2 s
  Plat: 111.5 x10_4/uL
  RBC: 626.8 x10_4/ul
  Ret: 6.2%
  WBC: 65.6 x10_2/uL
  KIDNEY_L: 0.9 g
  KIDNEY_R: 0.9 g
  KIDNEY_TOTAL: 1.8 g
  LIVER: 9.3 g
  A/G: 0.8
  ALP: 1720.4 IU/L
  ALT: 49.2 IU/L
  AST: 71.2 IU/L
  BUN: 17 mg/dL
  CRE: 0.2 mg/dL
  Ca: 10.6 mg/dL
  Cl: 106.6 meq/L
  DBIL: 0.008 mg/dL
  GLC: 174.6 mg/dL
  IP: 7.7 mg/dL
  K: 3.7 meq/L
  LDH: 65.6 IU/L
  Na: 142.6 meq/L
  PL: 154.6 mg/dL
  RALB: 2.6 g/dL
  TBIL: 0.022 mg/dL
  TC: 85.4 mg/dL
  TG: 76.6 mg/dL
  TP: 5.7 g/dL
  gamma-GTP: 1 IU/L
[2]
  TERMINAL_BW: 237.9 g
  APTT: 17.8 s
  Bas: 0%
  Eos: 1%
  Fbg: 277.2 mg/dL
  Hb: 13.2 g/dL
  Ht: 39.7%
  Lym: 77.8%
  MCH: 20.7 pg
  MCHC: 33.2%
  MCV: 62.3 fL
  Mono: 2.8%
  Neu: 17.2%
  PT: 16 s
  Plat: 112.6 x10_4/uL
  RBC: 638 x10_4/ul
  Ret: 6.6%
  WBC: 118.8 x10_2/uL
  KIDNEY_L: 1 g
  KIDNEY_R: 1 g
  KIDNEY_TOTAL: 2 g
  LIVER: 11.4 g
  A/G: 0.8
  ALP: 1392.6 IU/L
  ALT: 50 IU/L
  AST: 74.2 IU/L
  BUN: 18.2 mg/dL
  CRE: 0.2 mg/dL
  Ca: 10.8 mg/dL
  Cl: 107 meq/L
  DBIL: 0.01 mg/dL
  GLC: 194.2 mg/dL
  IP: 7.4 mg/dL
  K: 3.6 meq/L
  LDH: 81.8 IU/L
  Na: 144.4 meq/L
  PL: 162.2 mg/dL
  RALB: 2.6 g/dL
  TBIL: 0.03 mg/dL
  TC: 85.4 mg/dL
  TG: 105.4 mg/dL
  TP: 5.7 g/dL
  gamma-GTP: 1 IU/L
[3]
  TERMINAL_BW: 287.5 g
  APTT: 17.7 s
  Bas: 0.2%
  Eos: 0.8%
  Fbg: 275.8 mg/dL
  Hb: 13.8 g/dL
  Ht: 40.9%
  Lym: 79.4%
  MCH: 20.8 pg
  MCHC: 33.6%
  MCV: 62 fL
  Mono: 2.2%
  Neu: 16.4%
  PT: 16 s
  Plat: 107 x10_4/uL
  RBC: 660.4 x10_4/ul
  Ret: 4.7%
  WBC: 97.8 x10_2/uL
  KIDNEY_L: 1.2 g
  KIDNEY_R: 1.2 g
  KIDNEY_TOTAL: 2.4 g
  LIVER: 13.6 g
  A/G: 0.8
  ALP: 1782.8 IU/L
  ALT: 41 IU/L
  AST: 63 IU/L
  BUN: 18.8 mg/dL
  CRE: 0.2 mg/dL
  Ca: 10.6 mg/dL
  Cl: 105.8 meq/L
  DBIL: 0.01 mg/dL
  GLC: 208.4 mg/dL
  IP: 7.7 mg/dL
  K: 3.5 meq/L
  LDH: 99.6 IU/L
  Na: 144.6 meq/L
  PL: 170.2 mg/dL
  RALB: 2.7 g/dL
  TBIL: 0.02 mg/dL
  TC: 77.2 mg/dL
  TG: 175 mg/dL
  TP: 5.9 g/dL
  gamma-GTP: 1 IU/L
[4]
  TERMINAL_BW: 344.3 g
  APTT: 19.5 s
  Bas: 0%
  Eos: 1%
  Fbg: 290.4 mg/dL
  Hb: 14.6 g/dL
  Ht: 43.4%
  Lym: 76.4%
  MCH: 19.4 pg
  MCHC: 33.5%
  MCV: 57.8 fL
  Mono: 2.6%
  Neu: 18.6%
  PT: 16.2 s
  Plat: 107.8 x10_4/uL
  RBC: 751 x10_4/ul
  Ret: 2.5%
  WBC: 90.2 x10_2/uL
  KIDNEY_L: 1.2 g
  KIDNEY_R: 1.3 g
  KIDNEY_TOTAL: 2.5 g
  LIVER: 14.2 g
  A/G: 0.8
  ALP: 1238 IU/L
  ALT: 40.2 IU/L
  AST: 64 IU/L
  BUN: 16.2 mg/dL
  CRE: 0.2 mg/dL
  Ca: 10.4 mg/dL
  Cl: 107.4 meq/L
  DBIL: 0.008 mg/dL
  GLC: 196.6 mg/dL
  IP: 6.5 mg/dL
  K: 3.2 meq/L
  LDH: 72.6 IU/L
  Na: 144.8 meq/L
  PL: 158.8 mg/dL
  RALB: 2.7 g/dL
  TBIL: 0.016 mg/dL
  TC: 73.4 mg/dL
  TG: 149.6 mg/dL
  TP: 6 g/dL
  gamma-GTP: 1 IU/L
[5]
  TERMINAL_BW: 191.6 g
  APTT: 18.9 s
  Bas: 0.2%
  Eos: 1%
  Fbg: 316.6 mg/dL
  Hb: 13.3 g/dL
  Ht: 39.6%
  Lym: 80.6%
  MCH: 20.6 pg
  MCHC: 33.5%
  MCV: 61.6 fL
  Mono: 1.8%
  Neu: 15.2%
  PT: 16.2 s
  Plat: 110.6 x10_4/uL
  RBC: 645.4 x10_4/ul
  Ret: 3.8%
  WBC: 88.9 x10_2/uL
  KIDNEY_L: 0.8 g
  KIDNEY_R: 0.8 g
  KIDNEY_TOTAL: 1.7 g
  LIVER: 8.1 g
  A/G: 0.9
  ALP: 1546.2 IU/L
  ALT: 46 IU/L
  AST: 64.2 IU/L
  BUN: 14.8 mg/dL
  CRE: 0.2 mg/dL
  Ca: 10.6 mg/dL
  Cl: 109.8 meq/L
  DBIL: 0.002 mg/dL
  GLC: 166 mg/dL
  IP: 6.6 mg/dL
  K: 3.5 meq/L
  LDH: 63.2 IU/L
  Na: 142.4 meq/L
  PL: 154.8 mg/dL
  RALB: 2.6 g/dL
  TBIL: 0.02 mg/dL
  TC: 84.2 mg/dL
  TG: 55.6 mg/dL
  TP: 5.7 g/dL
  gamma-GTP: 1.2 IU/L
[6]
  TERMINAL_BW: 213.5 g
  APTT: 20.1 s
  Bas: 0%
  Eos: 1%
  Fbg: 286.8 mg/dL
  Hb: 13.1 g/dL
  Ht: 40.1%
  Lym: 81%
  MCH: 20.3 pg
  MCHC: 32.8%
  MCV: 62 fL
  Mono: 2.6%
  Neu: 14.6%
  PT: 16.4 s
  Plat: 111.5 x10_4/uL
  RBC: 647.8 x10_4/ul
  Ret: 5.6%
  WBC: 95.7 x10_2/uL
  KIDNEY_L: 0.9 g
  KIDNEY_R: 0.9 g
  KIDNEY_TOTAL: 1.8 g
  LIVER: 9.7 g
  A/G: 0.9
  ALP: 1590.8 IU/L
  ALT: 48 IU/L
  AST: 69.2 IU/L
  BUN: 18.6 mg/dL
  CRE: 0.2 mg/dL
  Ca: 10.9 mg/dL
  Cl: 110.8 meq/L
  DBIL: 0.004 mg/dL
  GLC: 187 mg/dL
  IP: 7.6 mg/dL
  K: 3.3 meq/L
  LDH: 68.4 IU/L
  Na: 145.2 meq/L
  PL: 165.2 mg/dL
  RALB: 2.6 g/dL
  TBIL: 0.016 mg/dL
  TC: 82.2 mg/dL
  TG: 60.2 mg/dL
  TP: 5.7 g/dL
  gamma-GTP: 1 IU/L
[7]
  TERMINAL_BW: 232.5 g
  APTT: 33.4 s
  Bas: 0%
  Eos: 0.8%
  Fbg: 283.2 mg/dL
  Hb: 14.4 g/dL
  Ht: 43.1%
  Lym: 83.6%
  MCH: 20.3 pg
  MCHC: 33.5%
  MCV: 60.5 fL
  Mono: 2.2%
  Neu: 12%
  PT: 16.6 s
  Plat: 105.9 x10_4/uL
  RBC: 712.6 x10_4/ul
  Ret: 3.8%
  WBC: 79.2 x10_2/uL
  KIDNEY_L: 1 g
  KIDNEY_R: 1 g
  KIDNEY_TOTAL: 2.1 g
  LIVER: 11 g
  A/G: 0.8
  ALP: 1780 IU/L
  ALT: 51 IU/L
  AST: 72.2 IU/L
  BUN: 17.6 mg/dL
  CRE: 0.2 mg/dL
  Ca: 10.3 mg/dL
  Cl: 111.2 meq/L
  DBIL: 0.004 mg/dL
  GLC: 182.6 mg/dL
  IP: 7.8 mg/dL
  K: 3.2 meq/L
  LDH: 85 IU/L
  Na: 145.2 meq/L
  PL: 158 mg/dL
  RALB: 2.7 g/dL
  TBIL: 0.012 mg/dL
  TC: 75 mg/dL
  TG: 72.4 mg/dL
  TP: 5.9 g/dL
  gamma-GTP: 1 IU/L
[8]
  TERMINAL_BW: 294.1 g
  APTT: 22.6 s
  Bas: 0.2%
  Eos: 0.8%
  Fbg: 282.6 mg/dL
  Hb: 14.5 g/dL
  Ht: 44.1%
  Lym: 78.2%
  MCH: 18.5 pg
  MCHC: 32.9%
  MCV: 56.1 fL
  Mono: 2.8%
  Neu: 16.8%
  PT: 16.7 s
  Plat: 93.9 x10_4/uL
  RBC: 786 x10_4/ul
  Ret: 2.3%
  WBC: 126.5 x10_2/uL
  KIDNEY_L: 1.2 g
  KIDNEY_R: 1.2 g
  KIDNEY_TOTAL: 2.4 g
  LIVER: 13.2 g
  A/G: 0.8
  ALP: 1231.8 IU/L
  ALT: 47.8 IU/L
  AST: 70 IU/L
  BUN: 20 mg/dL
  CRE: 0.2 mg/dL
  Ca: 10.5 mg/dL
  Cl: 110.4 meq/L
  DBIL: 0.002 mg/dL
  GLC: 196.4 mg/dL
  IP: 6.7 mg/dL
  K: 3 meq/L
  LDH: 67.4 IU/L
  Na: 146.4 meq/L
  PL: 148.6 mg/dL
  RALB: 2.7 g/dL
  TBIL: 0.008 mg/dL
  TC: 65.6 mg/dL
  TG: 89.4 mg/dL
  TP: 6 g/dL
  gamma-GTP: 1.2 IU/L
